Values belong to the compound of their own block, whether it stands above or below them.
Tests used:
Format in all cases: cell-based
3T3-L1 [1] = assay: Oil Red O neutral lipid quantification (spectrophotometry) in differentiating 3T3-L1; settings: for quantité de lipides: vs control
Source text: Brièvement : Des cellules 3T3-L1 ont été ensemencés dans leur milieu d'entretien. A confluence, les cellules ont été mises au contact des produits à tester dans un milieu permettant la différentiation des pré-adipocytes en adipocytes via la présence d'un cocktail d'induction. A l'issue du contact, les lipides neutres stockés dans les gouttelettes lipidiques des adipocytes ont été marqués par la coloration Huile Rouge O. Les lipides neutres ont été extraits (extraction à l'isopropanol) et dosés par spectrophotométrie. Les densités optiques obtenues sont proportionnelles à la quantité de lipides.

CERT [2] = target: T1, CERT (Mus musculus, UniProt Q9EQG9); assay: Total ceramides and sphingomyelins during 3T3-L1 differentiation under gedunin treatment
T1 construct: endogenous in cells; host or cells: 3T3-L1
T1 sequence (Q9EQG9 1-624): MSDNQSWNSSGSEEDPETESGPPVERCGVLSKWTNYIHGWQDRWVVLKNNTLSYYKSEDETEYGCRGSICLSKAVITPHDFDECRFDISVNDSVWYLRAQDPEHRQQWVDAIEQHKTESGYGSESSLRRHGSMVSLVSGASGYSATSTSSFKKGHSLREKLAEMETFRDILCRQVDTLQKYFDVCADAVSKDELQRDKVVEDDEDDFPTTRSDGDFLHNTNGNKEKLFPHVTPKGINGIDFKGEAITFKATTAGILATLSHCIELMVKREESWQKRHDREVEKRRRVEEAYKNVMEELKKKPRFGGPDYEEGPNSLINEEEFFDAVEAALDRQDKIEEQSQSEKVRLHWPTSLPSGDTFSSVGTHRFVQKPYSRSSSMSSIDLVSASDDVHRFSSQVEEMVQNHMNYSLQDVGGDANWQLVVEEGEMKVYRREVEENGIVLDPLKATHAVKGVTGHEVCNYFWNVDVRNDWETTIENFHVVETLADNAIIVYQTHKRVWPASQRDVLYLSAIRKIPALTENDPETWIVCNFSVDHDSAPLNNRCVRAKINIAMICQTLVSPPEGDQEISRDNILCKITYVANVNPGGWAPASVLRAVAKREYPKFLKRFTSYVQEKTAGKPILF
Method: (§1) Le protocole de différenciation se déroule en deux étapes : une phase d'induction (2 jours) suivie d'une étape d'accumulation (2 à 5 jours). • Milieu d'induction : Il s'agit du milieu d'entretien des 3T3-L1 supplémenté de 1µM d'Insuline; 1.25µM de Dexaméthasone et 250µM d' IBMX (3-isobutyl-1-methylxanthine) • Cocktail d'accumulation : Ce milieu est composé du milieu d'entretien des 3T3-L1 supplémenté de 1µM d'Insuline ;
Les lipides ont été extraits et les échantillons préparés pour la chromatographie liquide couplée à la spectrométrie de masse (cf. Bligh E.G. et al, 1959).
(§2) Les taux de céramides dans les extraits de lipides cellulaires sont mesurés par la méthode enzymatique de la DAG kinase. Le principe de ce dosage est de phosphoryler les céramides avec de l'ATP radiomarqué grâce à l'action de cette enzyme, puis de quantifier les radiations obtenues pour chaque échantillons, permettant ainsi de doser la quantité totale de céramides présents initialement dans les échantillons. Les résultats sont exprimés en fmol de céramides et normalisés par rapport à la quantité de phospholipides totaux dans les échantillons, exprimée en nmol.
(§3) La quantité de phospholipides totaux contenue dans les extraits cellulaires est dosée afin de normaliser les céramides présents dans chaque échantillon. La quantité de phospholipides totaux est mesurée par spectrophotométrie : l'absorbance est mesurée à 660 nm, puis calculée grâce à une gamme de sodium phosphate dibasique (Sigma-Aldrich) permettant de déterminer la concentration en phosphates dans chaque échantillon.
Afin de déterminer si la GED est capable d'inhiber le transport des céramides du RE vers le Golgi au cours du processus de différenciation des 3T3-L1, ces cellules ont été mises en contact de la GED au cours des deux phases du protocole (Schéma 3). Puis les céramides totaux et les sphingomyélines ont été quantifiés (figure 2A).

pré-adipocytes humains = assay: RT-qPCR gene expression in differentiating human pre-adipocytes; settings: treated during induction phase
Method: Comme pour les 3T3-L1, le protocole de différenciation des PrAH se déroule en deux étapes : les cellules sont exposées à milieu d'induction puis à un milieu d'accumulation, ces deux phases durant 10 jours chacune.
Le milieu d'induction est composé du milieu d'entretien supplémenté de l'insuline à 1µM, de l'IBMX à 500µM, de la dexaméthasone à 1µM ainsi que de l'indométhacine à 200µM. Le milieu d'accumulation est quant à lui composé du milieu d'entretien auquel on ajoute de l'insuline à 1µM.
(§4) L'extraction des ARNm à partir de ces échantillons est réalisée avec un kit RNeasy® Mini Kit, commercialisé par QIAGEN®.
(§5) La rétrotranscription des ARN extraits des échantillons en ADNc est réalisée selon le protocole suivant : les ARN sont incubés à 50°C pendant 30 minutes afin de réaliser la rétro-transcription des ARN en présence de la réversetranscriptase M-MLV; puis à 95°C pendant 15 minutes afin d'inhiber l'activité de la rétrotranscriptase, de dégrader les amorces d'ARN et d'activer la polymérase.
(§6) La PCR quantitative est réalisée dans Le LightCylcer 1.5 (Roche) grâce au kit FastStart DNA Master plus SYBR Green I (Roche).
Dans un premier temps, les cellules ont donc été traitées avec de la Gédunine durant la phase d'induction. Le niveau d'expression de gènes impliqués dans l'adipogenèse et dans la fonction adipocytaire a été évalué. Dans un deuxième temps, les cellules ont été colorées avec de l'Huile Rouge afin de visualiser leur capacité à stocker des lipides au sein de leurs gouttelettes lipidiques.

3T3-L1 [3] = assay: Oil Red staining of lipid droplets in 3T3-L1 (microscopy); settings: AdJ7, 10µM in induction (GED1) or accumulation (GED2) phase
Source text: Afin de visualiser les gouttelettes lipidiques contenues dans les adipocytes matures et donc de quantifier le niveau de différenciation des cellules, les lipides sont marqués avec de l'huile rouge. L'huile rouge est un colorant liposoluble qui colore les lipides neutres et donc les triglycérides stockés dans les gouttelettes.
(§7) L'inhibition de CERT, et donc de la synthèse de SM, par le traitement à la GED ayant été validée, la question a donc ensuite été de savoir si cela avait un effet sur la capacité de différenciation des cellules. Le même protocole de différenciation a donc été appliqué, associé ou non à un traitement à la Ged (figure 2A), et les niveaux d'expression de gènes impliqués d'une part dans l'adipogenèse et d'autre part dans la fonction adipocytaire ont été mesurés. Par ailleurs, les analyses transcriptomiques ont été combinées avec une analyse phénotypique des échantillons : un marquage à l'huile rouge, qui, en marquant les lipides, permet de visualiser les gouttelettes lipidiques dans les cellules et donc de savoir si celles-ci sont différenciées et fonctionnelles.

CERT [4] = target: T1, CERT; assay: Dose-response on basal 3T3-L1: total ceramide assay (DAG kinase) as readout of CERT inhibition; settings: 3T3-L1 in basal state, total ceramides; data not shown
Source text: as §2, §3

3T3-L1 [5] = assay: RT-qPCR expression of adipogenesis and adipocyte function genes during 3T3-L1 differentiation
Method: as §1, §4, §5, §6, §7
Les niveaux d'expression des gènes Pref1, comme marqueur pré-adipocytaire, ainsi que de PPARγ, C/EBPα et C/EBPδ qui sont des FT clés dans l'adipogenèse, ont été mesurés.

[6] = GED1 and GED2, stage AdJ7, vs CTRL

SMILES: CC1(C)O[C@H]2CC(=O)OC[C@]23[C@H]2CC[C@@]4(C)[C@H](c5ccoc5)OC(=O)[C@H]5O[C@]54[C@]2(C)C(=O)C[C@@H]13 [Limonine, limonine]
- % variation versus contrôle (3T3-L1 [1]; Limonine 10µM): -10%
- Moyenne ± écart type (Densité optique à 490nm) (3T3-L1 [1]; Limonine 10µM): 0,492 ± 0,061
- % variation versus contrôle (3T3-L1 [1]; Limonine 2OµM): -16,5%
- Moyenne ± écart type (Densité optique à 490nm) (3T3-L1 [1]; Limonine 2OµM): 0,455 ± 0,037
- cytotoxicité (3T3-L1 [1]; limonin experiment, tested concentrations (10 and 20 µM)): Aucune cytotoxicité
- quantité de lipides (3T3-L1 [1]; limonin experiment): baisse dose dépendante de la quantité de lipides
- quantité de lipides (3T3-L1 [1]; mandarin extract experiment): baisse dose dépendante de la quantité de lipides

- céramides totaux (CERT [2]; 3T3-L1, 10µM, AdJ2 treated in induction phase and AdJ7 treated in accumulation phase, vs control): accumulation des céramides significative
- dose de GED à partir de laquelle les céramides commencent à s'accumuler (CERT [4]): ≥ 10 µM
SMILES: CC(=O)O[C@@H]1C[C@H]2C(C)(C)C(=O)C=C[C@]2(C)[C@H]2CC[C@@]3(C)[C@H](c4ccoc4)OC(=O)[C@H]4O[C@]43[C@@]21C [Gédunine, gédunine]
- céramides totaux (CERT [2]; 3T3-L1, 10µM in induction phase, then control accumulation medium without GED): ne présentent pas d'accumulation des céramides
- accumulation de SM (CERT [2]; 3T3-L1, 10µM, after 5 days of accumulation, treatment in first or second step): diminuer significativement l'accumulation de SM
- quantité de SM (CERT [2]; 3T3-L1, 10µM, early stage, just before accumulation step): légère diminution de la quantité de SM, toutefois non significative
- expression du marqueur pré-adipocytaire Pref1 (pré-adipocytes humains; CTRL vs GED): aucune différence significative
- expressions de AdipoQ, FAS et LPL (pré-adipocytes humains; vs CTRL): diminution des expressions de AdipoQ, FAS et LPL
- induction de l'expression de PPARγ (pré-adipocytes humains; vs CTRL): fortement diminuée
- marquage des lipides neutres par l'huile rouge (3T3-L1 [3]): ne sont plus marquées
- expression de PPARγ (3T3-L1 [5]; 10µM in accumulation phase): diminution drastique de l'induction de l'expression de PPARγ
- expression de CD36, FAS, LPL et adiponectine (3T3-L1 [5]; 10µM in induction or accumulation phase, stages AdJ2 and AdJ7): diminue l'induction de l'expression de ces 4 gènes
- expression de PPARγ (3T3-L1 [5]; 10µM in induction phase, stages AdJ2 and AdJ7): diminution de cette induction de l'expression de PPARγ
- expression de C/EBPδ (3T3-L1 [5]; 10µM, stage AdJ2): semble diminuer, toutefois non-significativement
- expression de CD36, FAS, LPL et adiponectine (3T3-L1 [5]; AdJ7 GED2 (10µM in accumulation phase)): diminution drastique
- expression de Pref1 (3T3-L1 [5]; GED1 (10µM in induction phase), stage AdJ2): diminue de la même manière que chez les CTRL
- expression de Pref1 (3T3-L1 [5]; GED1 (10µM in induction phase), stage AdJ7): n'est plus réprimé
- expression de C/EBPα (3T3-L1 [5]; [6]): diminuée
- niveau d'expression de C/EBPδ (3T3-L1 [5]; [6]): significativement augmenté
- expression de Pref1 (3T3-L1 [5]; GED2 (10µM in accumulation phase), stage AdJ7): identique à celle des CTRL

Reference: EP3970691A1, “SLIMMING COSMETIC COMPOSITIONS CONTAINING ONE OR MORE LIMONOIDS” (C.F.E.B. Sisley, priority 2020, dated 2022)
